These results are taken from US11591341B2 (ALIGOS THERAPEUTICS, INC., priority 2019, dated 2023).

Structures are written as SMILES. pEC50: −log10 of the molar value.

For this experiment, the system named is HBV. The experiment in a line: HBV-DNA Antiviral Assay Using HepG2.117 Cells (intracellular HBV DNA by qPCR). The experiment is classed as cell-based, hepatitis B virus (genotype D). As to conditions: Hepatitis B virus, HepG2.117. A digest of the protocol: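 HepG2.117 cells (genotype D HBV, Tet-off) were induced by doxycycline withdrawal and treated for 3 days with 9 concentrations in 4-fold dilution, 2% DMSO final. Intracellular HBV DNA was measured by qPCR against a standard curve, with ATPlite viability read in parallel. EC50, EC90 and CC50 came from fits against the DMSO control.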
As to `C[C@H](Oc1ccc([C@@H](C)NC(=O)c2c3n(c(=O)n2-c2ccc(OCC(F)(F)F)cc2)CCN(C(=O)c2ccc(Br)c(Cl)c2)C3)c(F)c1)C(N)=O` (stereo in doubt) [Example 360, 7-(4-bromo-3-chloro-benzoyl)-3-oxo-N-[rac-(1R)-1-[2-fluoro-4-[rac-(1S)-2-amino-1-methyl-2-oxo-ethoxy]phenyl]ethyl]-2-[4-(2,2,2-trifluoroethoxy)phenyl]-6,8-dihydro-5H-imidazo[1,5-a]pyrazine-1-carboxamide], the pEC50 is 5.30 to 6.30.

`C[C@H](NC(=O)c1c2n(c(=O)n1-c1ccc(OCC(F)(F)F)cc1)CCN(C(=O)c1ccc(Br)c(Cl)c1)C2)c1ccc(O[C@H](C)C(N)=O)cc1F` (stereo in doubt) [Example 361, 7-(4-bromo-3-chloro-benzoyl)-3-oxo-N-[rac-(1S)-1-[2-fluoro-4-[rac-(1R)-2-amino-1-methyl-2-oxo-ethoxy]phenyl]ethyl]-2-[4-(2,2,2-trifluoroethoxy)phenyl]-6,8-dihydro-5H-imidazo[1,5-a]pyrazine-1-carboxamide] had a pEC50 of 6.30 to 7.00.

`C[C@H](Oc1ccc([C@H](C)NC(=O)c2c3n(c(=O)n2-c2ccc(OCC(F)(F)F)cc2)CCN(C(=O)c2ccc(Br)c(Cl)c2)C3)c(F)c1)C(N)=O` (stereo in doubt) [Example 362, 7-(4-bromo-3-chloro-benzoyl)-3-oxo-N-[rac-(1S)-1-[2-fluoro-4-[rac-(1S)-2-amino-1-methyl-2-oxo-ethoxy]phenyl]ethyl]-2-[4-(2,2,2-trifluoroethoxy)phenyl]-6,8-dihydro-5H-imidazo[1,5-a]pyrazine-1-carboxamide] showed a pEC50 of 6.30 to 7.00.

On to `C[C@H]1Cn2c(c3n(c2=O)C[C@@H](F)CN(Cc2ccccc2)C3=O)CN1C(=O)c1ccc(Br)c(Cl)c1` (stereo in doubt) [Example 371, 13-benzyl-4-(4-bromo-3-chlorobenzoyl)-11-fluoro-4,7,9,13-tetraazatricyclo[7.5.0.0^[2,7]]tetradec-1-ene-8,14-dione], for which the pEC50 was greater than 7.00.

Turning to `C[C@H]1Cn2c(c3n(c2=O)C[C@H](F)CN(Cc2ccccc2)C3=O)CN1C(=O)c1ccc(Br)c(Cl)c1` (stereo in doubt) [Example 372, 13-benzyl-4-(4-bromo-3-chlorobenzoyl)-11-fluoro-4,7,9,13-tetraazatricyclo[7.5.0.0^[2,7]]tetradec-1-ene-8,14-dione], the pEC50 is 6.30 to 7.00.

Consider `C[C@@H]1Cn2c(c3n(c2=O)C[C@@H](F)CN(Cc2ccccc2)C3=O)CN1C(=O)c1ccc(Br)c(Cl)c1` (stereo in doubt) [Example 373, rac-(5R,11S)-13-benzyl-4-(4-bromo-3-chloro-benzoyl)-11-fluoro-5-methyl-4,7,9,13-tetrazatricyclo[7.5.0.0^2,7]tetradec-1-ene-8,14-dione], for which the pEC50 is 6.30 to 7.00.

With `C[C@@H]1Cn2c(c3n(c2=O)C[C@H](F)CN(Cc2ccccc2)C3=O)CN1C(=O)c1ccc(Br)c(Cl)c1` (stereo in doubt) [Example 374, rac-(5R,11R)-13-benzyl-4-(4-bromo-3-chloro-benzoyl)-11-fluoro-5-methyl-4,7,9,13-tetrazatricyclo[7.5.0.0^2,7]tetradec-1-ene-8,14-dione], the pEC50 was 6.30 to 7.00.

Molecule `C[C@H](NC(=O)c1c2n(c(=O)n1-c1ccc(OCC(F)(F)F)cc1)CCN(C(=O)c1ccc(Br)c(Cl)c1)C2)c1ccc(OCC(N)=O)cc1-n1cccn1` (stereo in doubt) [Example 380, 7-(4-bromo-3-chloro-benzoyl)-3-oxo-N-[rac-(1S)-1-[4-(2-amino-2-oxo-ethoxy)-2-pyrazol-1-yl-phenyl]ethyl]-2-[4-(2,2,2-trifluoroethoxy)phenyl]-6,8-dihydro-5H-imidazo[1,5-a]pyrazine-1-carboxamide] gave a pEC50 of less than 5.30.
